Laboratory results reported in US20200157144A1, “ANTIMICROBIAL PEPTIDOMIMETICS” (priority 2017, published 2020).
≈ marks a conversion by molar mass, not a printed value. Square brackets hold non-standard residues; d marks the D form. Peptide text beside a SMILES is read from it. Bip(4'-Cl) = N[C@@H](Cc1ccc(-c2ccc(Cl)cc2)cc1)C(=O)O; Bip(4'-Me) = Cc1ccc(-c2ccc(C[C@H](N)C(=O)O)cc2)cc1; Bip = N[C@@H](Cc1ccc(-c2ccccc2)cc1)C(=O)O; dBip = N[C@H](Cc1ccc(-c2ccccc2)cc1)C(=O)O; Phe(4-Br) = N[C@@H](Cc1ccc(Br)cc1)C(=O)O; Phe(4-Cl) = N[C@@H](Cc1ccc(Cl)cc1)C(=O)O; Phe(4-I) = N[C@@H](Cc1ccc(I)cc1)C(=O)O; Phe(4-Me) = Cc1ccc(C[C@H](N)C(=O)O)cc1

System: Mupirocin-resistant MRSA ATCC-BAA-1556
Assay: microbe, parasite or virus in culture
Type: cell-based, Staphylococcus aureus
Conditions: ATCC-BAA-1556; read-out: MIC
Protocol: The MICs of test compounds were determined using the microdilution method from the Clinical and Laboratory Standards Institute (CLSI) guidelines (Clinical and Laboratory Standards Institute. Methods for dilution antimicrobial susceptibility tests for bacteria that grow aerobically; approved standard—ninth edition. Document M07-A9. Vol. 32 No. 2. Wayne, Pa.: CLSI; 2012). Briefly, bacteria were grown fresh from frozen stock in Mueller Hinton 2 (MH2) agar at 37° C. After an overnight incubation, 5 bacteria colonies were selected to grow in cation-adjusted MH2 broth in a shaking incubator (140 RPM) at 37° C. Cells were grown to an optical density (OD600) of 0.15-0.16 determined using a spectrophotometer (Molecular Devices Spectra Max Plus), which corresponds to ˜1×10^8 CFU/mL. Test compounds were constituted into 4 mM DMSO stock solutions and then subjected to 2-fold serial dilution in a 96-well plate with concentrations ranging from 100 to 0.195 μM in duplicates. […] of microbial culture containing ˜1×10^6 CFU/mL of microbes in the respective broths was introduced into each well containing 50 μL of compound solution. After an overnight incubation at 35° C., (220 RPM), OD600 measurements were conducted using the microplate spectrophotometer. The MIC was defined as the lowest antibiotic or compound concentration (μM) required to inhibit bacteria growth.
The 11th well was used as the growth control well (medium with bacterial inoculums, no antibacterial) while the 12th well was the sterility control well (medium only).

In order of rising MIC:
1. N=C(N)NCCC[C@H](NC(=O)[C@H](Cc1ccc(-c2ccccc2)cc1)NC(=O)[C@H](CCCNC(=N)N)NC(=O)[C@@H](N)Cc1ccc(-c2ccc(Cl)cc2)cc1)C(N)=O [Compound 15] (H-[Bip(4'-Cl)]R[Bip]R-NH2)  6.25 µM (≈ 5.07 µg/mL)
2. N=C(N)NCCC[C@H](NC(=O)[C@H](Cc1ccc(-c2ccc(Cl)cc2)cc1)NC(=O)[C@H](CCCNC(=N)N)NC(=O)[C@@H](N)Cc1ccc(-c2ccccc2)cc1)C(N)=O [Compound 16] (H-[Bip]R[Bip(4'-Cl)]R-NH2)  6.25 µM (≈ 5.07 µg/mL)
3. N=C(N)NCCC[C@H](NC(=O)[C@H](Cc1ccc(-c2ccccc2)cc1)NC(=O)[C@H](CCCNC(=N)N)NC(=O)[C@@H](N)Cc1ccc(-c2ccc(Cl)c(Cl)c2)cc1)C(N)=O [Compound 17]  6.25 µM (≈ 5.28 µg/mL)
4. N=C(N)NCCC[C@H](NC(=O)[C@H](Cc1ccc(-c2ccc(Cl)c(Cl)c2)cc1)NC(=O)[C@H](CCCNC(=N)N)NC(=O)[C@@H](N)Cc1ccc(-c2ccccc2)cc1)C(N)=O [Compound 18]  6.25 µM (≈ 5.28 µg/mL)
5. N=C(N)NCCC[C@H](NC(=O)[C@H](Cc1ccc(-c2ccccc2)cc1)NC(=O)[C@H](CCCNC(=N)N)NC(=O)[C@@H](N)Cc1ccc(-c2ccc(Br)cc2)cc1)C(N)=O [Compound 19]  6.25 µM (≈ 5.34 µg/mL)
6. N=C(N)NCCC[C@H](NC(=O)[C@H](Cc1ccc(-c2ccc(Br)cc2)cc1)NC(=O)[C@H](CCCNC(=N)N)NC(=O)[C@@H](N)Cc1ccc(-c2ccccc2)cc1)C(N)=O [Compound 20]  6.25 µM (≈ 5.34 µg/mL)
7. N=C(N)NCCC[C@H](NC(=O)[C@H](Cc1ccc(-c2ccccc2)cc1)NC(=O)[C@H](CCCNC(=N)N)NC(=O)[C@@H](N)Cc1ccc(-c2cccc(Cl)c2)cc1)C(N)=O [Compound 27]  6.25 µM (≈ 5.07 µg/mL)
8. N=C(N)NCCC[C@H](NC(=O)[C@H](Cc1ccc(-c2cccc(Cl)c2)cc1)NC(=O)[C@H](CCCNC(=N)N)NC(=O)[C@@H](N)Cc1ccc(-c2ccccc2)cc1)C(N)=O [Compound 28]  6.25 µM (≈ 5.07 µg/mL)
9. N=C(N)NCCCCNC(=O)[C@H](Cc1ccc(-c2ccccc2)cc1)NC(=O)[C@H](CCCNC(=N)N)NC(=O)[C@@H](N)Cc1ccc(-c2ccccc2)cc1 [Compound 1]  12.5 µM (≈ 9.16 µg/mL)
10. N=C(N)NCCC[C@H](NC(=O)[C@H](Cc1ccc(-c2ccccc2)cc1)NC(=O)[C@H](CCCNC(=N)N)NC(=O)[C@@H](N)Cc1ccc(-c2ccccc2)cc1)C(N)=O [Compound 3] (H-[Bip]R[Bip]R-NH2)  12.5 µM (≈ 9.7 µg/mL)
11. N=C(N)NCCC[C@@H](NC(=O)[C@@H](Cc1ccc(-c2ccccc2)cc1)NC(=O)[C@@H](CCCNC(=N)N)NC(=O)[C@H](N)Cc1ccc(-c2ccccc2)cc1)C(N)=O [Compound 4] (H-[dBip][dR][dBip][dR]-NH2)  12.5 µM (≈ 9.7 µg/mL)
12. Cc1ccc(-c2ccc(C[C@H](N)C(=O)N[C@@H](CCCNC(=N)N)C(=O)N[C@@H](Cc3ccc(-c4ccccc4)cc3)C(=O)N[C@@H](CCCNC(=N)N)C(N)=O)cc2)cc1 [Compound 21] (H-[Bip(4'-Me)]R[Bip]R-NH2)  12.5 µM (≈ 9.87 µg/mL)
13. Cc1ccc(-c2ccc(C[C@H](NC(=O)[C@H](CCCNC(=N)N)NC(=O)[C@@H](N)Cc3ccc(-c4ccccc4)cc3)C(=O)N[C@@H](CCCNC(=N)N)C(N)=O)cc2)cc1 [Compound 22] (H-[Bip]R[Bip(4'-Me)]R-NH2)  12.5 µM (≈ 9.87 µg/mL)
14. CC(C)(C)c1ccc(-c2ccc(C[C@H](N)C(=O)N[C@@H](CCCNC(=N)N)C(=O)N[C@@H](Cc3ccc(-c4ccccc4)cc3)C(=O)N[C@@H](CCCNC(=N)N)C(N)=O)cc2)cc1 [Compound 23]  12.5 µM (≈ 10.4 µg/mL)
15. CC(C)(C)c1ccc(-c2ccc(C[C@H](NC(=O)[C@H](CCCNC(=N)N)NC(=O)[C@@H](N)Cc3ccc(-c4ccccc4)cc3)C(=O)N[C@@H](CCCNC(=N)N)C(N)=O)cc2)cc1 [Compound 24]  12.5 µM (≈ 10.4 µg/mL)
16. N=C(N)NCCC[C@H](NC(=O)[C@H](Cc1ccc(-c2ccc(-c3ccccc3)cc2)cc1)NC(=O)[C@H](CCCNC(=N)N)NC(=O)[C@@H](N)Cc1ccc(-c2ccccc2)cc1)C(N)=O [Compound 26]  25 µM (≈ 21.3 µg/mL)
17. N=C(N)NCCC[C@H](NC(=O)[C@H](Cc1ccc(-c2ccccc2)cc1)NC(=O)[C@H](CCCNC(=N)N)NC(=O)[C@@H](N)Cc1ccc(Br)cc1)C(N)=O [Compound 11] (H-[Phe(4-Br)]R[Bip]R-NH2)  50 µM (≈ 38.9 µg/mL)
18. N=C(N)NCCC[C@H](NC(=O)[C@H](Cc1ccc(-c2ccccc2)cc1)NC(=O)[C@H](CCCNC(=N)N)NC(=O)[C@@H](N)Cc1ccc(I)cc1)C(N)=O [Compound 13] (H-[Phe(4-I)]R[Bip]R-NH2)  50 µM (≈ 41.3 µg/mL)
19. CC(C)(C)c1cc(-c2ccc(C[C@H](N)C(=O)N[C@@H](CCCNC(=N)N)C(=O)N[C@@H](Cc3ccc(-c4ccccc4)cc3)C(=O)N[C@@H](CCCNC(=N)N)C(N)=O)cc2)cc(C(C)(C)C)c1 [Compound 29]  50 µM (≈ 44.4 µg/mL)
20. CC(C)(C)c1cc(-c2ccc(C[C@H](NC(=O)[C@H](CCCNC(=N)N)NC(=O)[C@@H](N)Cc3ccc(-c4ccccc4)cc3)C(=O)N[C@@H](CCCNC(=N)N)C(N)=O)cc2)cc(C(C)(C)C)c1 [Compound 30]  50 µM (≈ 44.4 µg/mL)
21. Cc1ccc(C[C@H](N)C(=O)N[C@@H](CCCNC(=N)N)C(=O)N[C@@H](Cc2ccc(-c3ccccc3)cc2)C(=O)N[C@@H](CCCNC(=N)N)C(N)=O)cc1 [Compound 7] (H-[Phe(4-Me)]R[Bip]R-NH2)  100 µM (≈ 71.4 µg/mL)
22. N=C(N)NCCC[C@H](NC(=O)[C@H](Cc1ccc(-c2ccccc2)cc1)NC(=O)[C@H](CCCNC(=N)N)NC(=O)[C@@H](N)Cc1ccc(Cl)cc1)C(N)=O [Compound 9] (H-[Phe(4-Cl)]R[Bip]R-NH2)  100 µM (≈ 73.4 µg/mL)
23. N=C(N)NCCC[C@H](NC(=O)[C@H](Cc1ccc(Cl)cc1)NC(=O)[C@H](CCCNC(=N)N)NC(=O)[C@@H](N)Cc1ccc(-c2ccccc2)cc1)C(N)=O [Compound 10] (H-[Bip]R[Phe(4-Cl)]R-NH2)  100 µM (≈ 73.4 µg/mL)
24. N=C(N)NCCC[C@H](NC(=O)[C@H](Cc1ccc(Br)cc1)NC(=O)[C@H](CCCNC(=N)N)NC(=O)[C@@H](N)Cc1ccc(-c2ccccc2)cc1)C(N)=O [Compound 12] (H-[Bip]R[Phe(4-Br)]R-NH2)  100 µM (≈ 77.9 µg/mL)
25. N=C(N)NCCC[C@H](NC(=O)[C@H](Cc1ccc(I)cc1)NC(=O)[C@H](CCCNC(=N)N)NC(=O)[C@@H](N)Cc1ccc(-c2ccccc2)cc1)C(N)=O [Compound 14] (H-[Bip]R[Phe(4-I)]R-NH2)  100 µM (≈ 82.6 µg/mL)
26. N=C(N)NCCC[C@H](NC(=O)[C@H](Cc1ccc(-c2ccccc2)cc1)NC(=O)[C@H](CCCNC(=N)N)NC(=O)[C@@H](N)Cc1ccc(-c2ccc(-c3ccccc3)cc2)cc1)C(N)=O [Compound 25]  100 µM (≈ 85.2 µg/mL)
27. N=C(N)NCCC[C@H](NC(=O)[C@H](Cc1ccc(-c2ccccc2)cc1)NC(=O)[C@H](CCCNC(=N)N)NC(=O)[C@@H](N)Cc1ccc(-c2ccccc2)cc1)C(N)=O [Compound 31] (H-[Bip]R[Bip]R-NH2)  100 µM (≈ 77.6 µg/mL)

For `N=C(N)NCCC[C@H](NC(=O)[C@H](Cc1ccc(-c2ccccc2)cc1)NC(=O)[C@H](CCCNC(=N)N)NC(=O)[C@@H](N)Cc1ccccc1)C(N)=O` [Compound 5] (H-FR[Bip]R-NH2), the MIC was >100 µM.
With `N=C(N)NCCC[C@H](NC(=O)[C@H](Cc1ccccc1)NC(=O)[C@H](CCCNC(=N)N)NC(=O)[C@@H](N)Cc1ccc(-c2ccccc2)cc1)C(N)=O` [Compound 6] (H-[Bip]RFR-NH2) the MIC was >100 µM.
In the case of `Cc1ccc(C[C@H](NC(=O)[C@H](CCCNC(=N)N)NC(=O)[C@@H](N)Cc2ccc(-c3ccccc3)cc2)C(=O)N[C@@H](CCCNC(=N)N)C(N)=O)cc1` [Compound 8] (H-[Bip]R[Phe(4-Me)]R-NH2), the MIC was >100 µM.
